biological target: T1, Motilin Receptor (Oryctolagus cuniculus, UniProt G1T803); assay: Motilin receptor binding, rabbit colon membranes, 125I porcine motilin; set-up: Rabbit Colon % Inh / inhibition / % Inh (Rabbit colon): dose or concentration left out as unconfirmed; conditions: not given
T1 construct: The muscle tissue was homogenized in 10 volumes of 50 mM Tris-Cl; from tissue; host or cells: rabbit colon smooth muscle, crude membrane homogenate
Experimental: Rabbit colon was removed, dissected free from the mucosa and serosa, and diced into small pieces. The muscle tissue was homogenized in 10 volumes of 50 mM Tris-Cl, 10 mM MgCl2, 0.1 mg/ml bacitracin, and 0.25 mM Peflabloc, at pH 7.5 in a Polytron (29000 rpm, 4×15 seconds). The homogenate was centrifuged at 1000×g for 15 minutes and the supernatant discarded. The pellet was washed twice before being suspended in homogenizing buffer. The crude homogenate was resuspended through a 23 gauge needle before storing at −80° C. […] After 60 minutes at 30° C., the samples were cooled in ice, centrifuged in the cold at 13000×g for 1 minute. The pellet was washed twice with 1 ml of cold saline, the supernatant was aspirated, and the pellet at the bottom of the tube counted in a gamma counter. Non-specific binding was determined by the inclusion of 1 mM of unlabeled motilin. IC50 values were determined from Kaleidograph curves.

T1 sequence (G1T803 1-400): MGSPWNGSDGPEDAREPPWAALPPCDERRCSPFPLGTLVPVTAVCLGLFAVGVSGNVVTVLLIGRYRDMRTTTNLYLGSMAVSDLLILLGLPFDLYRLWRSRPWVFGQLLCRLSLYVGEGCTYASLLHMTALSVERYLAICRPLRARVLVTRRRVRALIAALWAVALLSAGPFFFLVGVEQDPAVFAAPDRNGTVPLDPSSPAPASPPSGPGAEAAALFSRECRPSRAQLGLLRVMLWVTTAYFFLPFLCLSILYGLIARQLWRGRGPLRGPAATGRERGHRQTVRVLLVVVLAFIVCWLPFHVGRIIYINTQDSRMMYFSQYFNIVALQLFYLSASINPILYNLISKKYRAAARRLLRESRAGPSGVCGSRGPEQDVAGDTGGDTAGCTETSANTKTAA

| SMILES | IC50 [nM] |
| --- | --- |
| O=C(CCCN(C(=O)c1ccc(F)cc1)c1cccc(OCCN2CCOCC2)c1)N(CCc1ccccc1)Cc1ccccc1 [compound 4] | 690 |

same assay, conditions: rabbit colon membranes

| SMILES | Rabbit Colon % Inh [%] |
| --- | --- |
| CN(CCOc1cccc(N(CC2CCCC(N(Cc3cccc(Cl)c3)C(=O)C(C)(C)C)C2)C(=O)c2ccc(F)cc2)c1)Cc1ccccc1 (racemic) [compound 232] | 62 |
| CN1CCCC1CCOc1cccc(N(CC2CCCC(N(Cc3cccc(Cl)c3)C(=O)C(C)(C)C)C2)C(=O)c2ccc(F)cc2)c1 (racemic) [compound 235] | 61 |
| CN1CCCC1CCOc1cccc(N(CC2CCCC(N(Cc3cccc(Cl)c3)C(=O)C(Cl)(Cl)Cl)C2)C(=O)c2ccc(F)cc2)c1 (racemic) [compound 236] | 53 |
| Cc1ccc(S(=O)(=O)N(CCCC(=O)N(CCc2ccccc2)Cc2ccccc2)c2cccc(OCCN3CCOCC3)c2)cc1 [compound 2] | 9 |
| Cc1ccc(C(=O)N(CCCC(=O)N(CCc2ccccc2)Cc2ccccc2)c2cccc(OCCN3CCOCC3)c2)cc1 [compound 3] | 35 |
| O=C(CCCCN(C(=O)Nc1ccccc1)c1cccc(OCCN2CCOCC2)c1)N(CCc1ccccc1)Cc1ccccc1 [compound 5] | 40 |
| Cc1ccc(C(=O)N(CCCCC(=O)N(CCc2ccccc2)Cc2ccccc2)c2cccc(OCCN3CCOCC3)c2)cc1 [compound 6] | 24 |
| O=C(CCCCN(C(=O)c1ccc(F)cc1)c1cccc(OCCN2CCOCC2)c1)N(CCc1ccccc1)Cc1ccccc1 [compound 7] | 42 |
| CCN(Cc1ccccc1)C(=O)CCCN(C(=O)Nc1ccccc1)c1cccc(OCCN2CCOCC2)c1 [compound 8] | 18 |
| CCN(Cc1ccccc1)C(=O)CCCN(c1cccc(OCCN2CCOCC2)c1)S(=O)(=O)c1ccc(C)cc1 [compound 9] | 27 |
| CCN(Cc1ccccc1)C(=O)CCCN(C(=O)c1ccc(C)cc1)c1cccc(OCCN2CCOCC2)c1 [compound 10] | 29 |
| CCN(Cc1ccccc1)C(=O)CCCN(C(=O)c1ccc(F)cc1)c1cccc(OCCN2CCOCC2)c1 [compound 11] | 0 |
| CCN(Cc1ccccc1)C(=O)CCCCN(c1cccc(OCCN2CCOCC2)c1)S(=O)(=O)c1ccc(C)cc1 [compound 12] | 4 |
| CCN(Cc1ccccc1)C(=O)CCCCN(C(=O)c1ccc(C)cc1)c1cccc(OCCN2CCOCC2)c1 [compound 13] | 21 |
| CCN(Cc1ccccc1)C(=O)CCCCN(C(=O)c1ccc(F)cc1)c1cccc(OCCN2CCOCC2)c1 [compound 14] | 25 |
| CN(Cc1ccccc1)C(=O)CCCN(C(=O)Nc1ccccc1)c1cccc(OCCN2CCOCC2)c1 [compound 15] | 21 |
| Cc1ccc(S(=O)(=O)N(CCCC(=O)N(C)Cc2ccccc2)c2cccc(OCCN3CCOCC3)c2)cc1 [compound 16] | 21 |
| Cc1ccc(C(=O)N(CCCC(=O)N(C)Cc2ccccc2)c2cccc(OCCN3CCOCC3)c2)cc1 [compound 17] | 12 |
| CN(Cc1ccccc1)C(=O)CCCN(C(=O)c1ccc(F)cc1)c1cccc(OCCN2CCOCC2)c1 [compound 18] | 0 |
| CN(Cc1ccccc1)C(=O)CCCCN(C(=O)Nc1ccccc1)c1cccc(OCCN2CCOCC2)c1 [compound 19] | 5 |
| Cc1ccc(S(=O)(=O)N(CCCCC(=O)N(C)Cc2ccccc2)c2cccc(OCCN3CCOCC3)c2)cc1 [compound 20] | 8 |
| Cc1ccc(C(=O)N(CCCCC(=O)N(C)Cc2ccccc2)c2cccc(OCCN3CCOCC3)c2)cc1 [compound 21] | 34 |
| CN(Cc1ccccc1)C(=O)CCCCN(C(=O)c1ccc(F)cc1)c1cccc(OCCN2CCOCC2)c1 [compound 22] | 23 |
| O=C(CCCN(C(=O)Nc1ccccc1)c1cccc(OCCN2CCOCC2)c1)N(Cc1ccccc1)Cc1ccccc1 [compound 23] | 48 |
| Cc1ccc(S(=O)(=O)N(CCCC(=O)N(Cc2ccccc2)Cc2ccccc2)c2cccc(OCCN3CCOCC3)c2)cc1 [compound 24] | 6 |

| SMILES | Rabbit Colon % Inh [%] |
| --- | --- |
| Cc1ccc(C(=O)N(CCCC(=O)N(Cc2ccccc2)Cc2ccccc2)c2cccc(OCCN3CCOCC3)c2)cc1 [compound 25] | 23 |
| O=C(CCCCN(C(=O)Nc1ccccc1)c1cccc(OCCN2CCOCC2)c1)N(Cc1ccccc1)Cc1ccccc1 [compound 26] | 22 |
| Cc1ccc(S(=O)(=O)N(CCCCC(=O)N(Cc2ccccc2)Cc2ccccc2)c2cccc(OCCN3CCOCC3)c2)cc1 [compound 27] | 22 |
| Cc1ccc(C(=O)N(CCCCC(=O)N(Cc2ccccc2)Cc2ccccc2)c2cccc(OCCN3CCOCC3)c2)cc1 [compound 28] | 13 |
| O=C(CCCCN(C(=O)c1ccc(F)cc1)c1cccc(OCCN2CCOCC2)c1)N(Cc1ccccc1)Cc1ccccc1 [compound 29] | 18 |
| CCN(Cc1ccc(C)cc1)C(=O)CCCN(C(=O)Nc1ccccc1)c1cccc(OCCN2CCOCC2)c1 [compound 30] | 17 |
| CCN(Cc1ccc(C)cc1)C(=O)CCCN(c1cccc(OCCN2CCOCC2)c1)S(=O)(=O)c1ccc(C)cc1 [compound 31] | 39 |
| CCN(Cc1ccc(C)cc1)C(=O)CCCN(C(=O)c1ccc(C)cc1)c1cccc(OCCN2CCOCC2)c1 [compound 32] | 12 |
| CCN(Cc1ccc(C)cc1)C(=O)CCCN(C(=O)c1ccc(F)cc1)c1cccc(OCCN2CCOCC2)c1 [compound 33] | 16 |
| CCN(Cc1ccc(C)cc1)C(=O)CCCCN(C(=O)Nc1ccccc1)c1cccc(OCCN2CCOCC2)c1 [compound 34] | 7 |
| CCN(Cc1ccc(C)cc1)C(=O)CCCCN(c1cccc(OCCN2CCOCC2)c1)S(=O)(=O)c1ccc(C)cc1 [compound 35] | 17 |
| CCN(Cc1ccc(C)cc1)C(=O)CCCCN(C(=O)c1ccc(C)cc1)c1cccc(OCCN2CCOCC2)c1 [compound 36] | 32 |
| CCN(Cc1ccc(C)cc1)C(=O)CCCCN(C(=O)c1ccc(F)cc1)c1cccc(OCCN2CCOCC2)c1 [compound 37] | 11 |
| COc1cccc(C(=O)N(Cc2ccccc2)C2CCCC(CN(C(=O)Nc3ccccc3)c3cccc(OCCN4CCOCC4)c3)C2)c1 (centres unmarked) [compound 41] | 58 |
| CC(C)(C)C(=O)N(Cc1ccccc1)C1CCCC(CN(C(=O)Nc2ccccc2)c2cccc(OCCN3CCOCC3)c2)C1 (centres unmarked) [compound 42] | 50 |
| O=C(Nc1ccccc1)N(CC1CCCC(N(Cc2ccccc2)C(=O)c2ccc3ccccc3c2)C1)c1cccc(OCCN2CCOCC2)c1 (centres unmarked) [compound 44] | 4 |
| O=C(Nc1ccccc1)N(CC1CCCC(N(Cc2ccccc2)C(=O)C(c2ccccc2)c2ccccc2)C1)c1cccc(OCCN2CCOCC2)c1 (centres unmarked) [compound 46] | 32 |
| O=C(Nc1ccccc1)N(CC1CCCC(N(Cc2cccc(Cl)c2)C(=O)C(Cl)(Cl)Cl)C1)c1cccc(OCCN2CCOCC2)c1 (centres unmarked) [compound 47] | 23 |
| O=C(Nc1ccccc1)N(CC1CCCC(N(Cc2cccc(Cl)c2)C(=O)c2cc(C(F)(F)F)cc(C(F)(F)F)c2)C1)c1cccc(OCCN2CCOCC2)c1 (centres unmarked) [compound 49] | 37 |
| O=C(Nc1ccccc1)N(CC1CCCC(N(Cc2cccc(Cl)c2)C(=O)c2ccc(-c3ccccc3)cc2)C1)c1cccc(OCCN2CCOCC2)c1 (centres unmarked) [compound 50] | 32 |
| COc1cccc(C(=O)N(Cc2cccc(Cl)c2)C2CCCC(CN(C(=O)Nc3ccccc3)c3cccc(OCCN4CCOCC4)c3)C2)c1 (centres unmarked) [compound 51] | 73 |
| CC(C)(C)C(=O)N(Cc1cccc(Cl)c1)C1CCCC(CN(C(=O)Nc2ccccc2)c2cccc(OCCN3CCOCC3)c2)C1 (centres unmarked) [compound 52] | 45 |
| O=C(Nc1ccccc1)N(CC1CCCC(N(Cc2cccc(Cl)c2)C(=O)CCc2ccccc2)C1)c1cccc(OCCN2CCOCC2)c1 (centres unmarked) [compound 53] | 52 |
| O=C(Nc1ccccc1)N(CC1CCCC(N(Cc2cccc(Cl)c2)C(=O)c2ccc3ccccc3c2)C1)c1cccc(OCCN2CCOCC2)c1 (centres unmarked) [compound 54] | 42 |

same assay, conditions: rabbit colon membranes; read-out: Rabbit Colon % Inh

| SMILES | inhibition [%] |
| --- | --- |
| O=C(CCCN(C(=O)Nc1ccccc1)c1cccc(OCCN2CCOCC2)c1)N(CCc1ccccc1)Cc1ccccc1 [compound 1] | 35 |
| O=C(Nc1ccccc1)N(c1cccc(OCCN2CCOCC2)c1)C1CCC(CN(Cc2cccc(Cl)c2)C(=O)C(Cl)(Cl)Cl)C1 (centres unmarked) [compound 39] | 4 |
| O=C(Nc1ccccc1)N(CC1CCCC(N(Cc2ccccc2)C(=O)Nc2ccccc2)C1)c1cccc(OCCN2CCOCC2)c1 (centres unmarked) [compound 40] | 11 |
| O=C(Nc1ccccc1)N(CC1CCCC(N(Cc2ccccc2)C(=O)CCc2ccccc2)C1)c1cccc(OCCN2CCOCC2)c1 (centres unmarked) [compound 43] | 74 |
| O=C(Nc1ccccc1)N(CC1CCCC(N(Cc2ccccc2)C(=O)c2cccc([N+](=O)[O-])c2)C1)c1cccc(OCCN2CCOCC2)c1 (centres unmarked) [compound 45] | 67 |
| O=C(Nc1ccccc1)N(CC1CCCC(N(Cc2ccccc2)C(=O)c2ccco2)C1)c1cccc(OCCN2CCOCC2)c1 (centres unmarked) [compound 48] | 67 |

same assay, conditions: rabbit colon membranes; read-out: Rabbit Colon IC50

| SMILES | IC50 [nM] |
| --- | --- |
| O=C(c1ccc(F)cc1)N(C[C@H]1CCC[C@@H](N(Cc2cccc(Cl)c2)C(=O)C(Cl)(Cl)Cl)C1)c1cccc(OCCN2CCCCC2)c1 [ID 239] | 73 |
| O=C(Nc1ccccc1)N(CC1CCCC(N(Cc2ccccc2)C(=O)CCc2ccccc2)C1)c1cccc(OCCN2CCOCC2)c1 (centres unmarked) [compound 43] | 730 |
| O=C(Nc1ccccc1)N(CC1CCCC(N(Cc2ccccc2)C(=O)c2cccc([N+](=O)[O-])c2)C1)c1cccc(OCCN2CCOCC2)c1 (centres unmarked) [compound 45] | 1160 |
| O=C(Nc1ccccc1)N(CC1CCCC(N(Cc2ccccc2)C(=O)c2ccco2)C1)c1cccc(OCCN2CCOCC2)c1 (centres unmarked) [compound 48] | 656 |
| COc1cccc(C(=O)N(Cc2cccc(Cl)c2)C2CCCC(CN(C(=O)Nc3ccccc3)c3cccc(OCCN4CCOCC4)c3)C2)c1 (centres unmarked) [compound 51] | 650 |

same assay, conditions: read-out: Rabbit Colon % Inh

| SMILES | inhibition [%] |
| --- | --- |
| O=C(CCCN(C(=O)c1ccc(F)cc1)c1cccc(OCCN2CCOCC2)c1)N(CCc1ccccc1)Cc1ccccc1 [compound 4] | 75 |
